Our source for the EC50 values is patent publication US11149040B2, “Fused triazole agonists of the APJ receptor” (AMGEN INC., priority 2017, dated 2021).

human APJ receptor, sequence (P35414 whole entry): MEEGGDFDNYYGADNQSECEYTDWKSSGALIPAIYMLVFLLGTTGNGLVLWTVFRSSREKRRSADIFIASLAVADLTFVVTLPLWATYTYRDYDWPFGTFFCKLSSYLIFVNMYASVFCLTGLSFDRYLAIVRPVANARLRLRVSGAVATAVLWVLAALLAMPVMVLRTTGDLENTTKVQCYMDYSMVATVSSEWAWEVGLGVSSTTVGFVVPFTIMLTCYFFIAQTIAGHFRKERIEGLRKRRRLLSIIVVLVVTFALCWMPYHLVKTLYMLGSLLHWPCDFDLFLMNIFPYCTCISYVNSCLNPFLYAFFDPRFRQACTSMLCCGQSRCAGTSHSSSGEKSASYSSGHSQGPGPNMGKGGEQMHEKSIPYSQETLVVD

This assay addresses human APJ receptor (Homo sapiens (Human), UniProt P35414). Description: [35S]GTPγS binding assay on membranes from CHO cells stably expressing human APJ receptor. Type of assay: biochemical. The following applies: read-out: Activity hAPJ SPA EC50 IP. How it is done: [^35S]GTPγS Binding The human APJ receptor was cloned by polymerase chain reaction and the gene encoding the receptor was subcloned in pFLAG-CMV™-3 expression vector (Sigma, Saint Louis, Mo. USA) in-house at Amgen. A GTPγS binding assay was performed on membranes prepared from CHO cells stably expressing human APJ receptor. The optimum experimental conditions for the concentrations of GDP, MgCl2, and NaCl in the assay buffer were initially determined. […] Incubation was at RT for 90 min and the microplate was read using a ViewLux™ ultra HTS Microplate Imager (PerkinElmer, Inc.). All the results presented are means of several independent experiments and analyzed by non-linear regression methods using the commercially available program Prism (GraphPad, San Diego, Calif.) providing the EC50 values detailed in Table 13.
Take `COC[C@@H]1COc2ccc(OC)nc2-c2nnc(NS(=O)(=O)[C@@H](C)[C@H](C)c3ncc(C)cn3)n21` (mixture of isomers) [Example 10.0, (2S,3R)-N-((5R)-10-methoxy-5-(methoxymethyl)-5,6-dihydropyrido[2,3-f][1,2,4]triazolo[4,3-d][1,4]oxazepin-3-yl)-3-(5-methyl-2-pyrimidinyl)-2-butanesulfonamide and (2S,3R)-N-((5S)-10-methoxy-5-(methoxymethyl)-5,6-dihydropyrido[2,3-f][1,2,4]triazolo[4,3-d][1,4]oxazepin-3-yl)-3-(5-methyl-2-pyrimidinyl)-2-butanesulfonamide]: the EC50 turned out to be 790 nM.

On to `COC[C@@H]1COc2ccc(OC)nc2-c2nnc(NS(=O)(=O)[C@@H](C)[C@@H](OC(C)C)c3ncc(C)cn3)n21` (mixture of isomers) [Example 11.0, (1S,2S)-N-((5R)-10-methoxy-5-(methoxymethyl)-5,6-dihydropyrido[2,3-f][1,2,4]triazolo[4,3-d][1,4]oxazepin-3-yl)-1-(5-methyl-2-pyrimidinyl)-1-(2-propanyloxy)-2-propanesulfonamide and (1S,2S)-N-((5S)-10-methoxy-5-(methoxymethyl)-5,6-dihydropyrido[2,3-f][1,2,4]triazolo[4,3-d][1,4]oxazepin-3-yl)-1-(5-methyl-2-pyrimidinyl)-1-(2-propanyloxy)-2-propanesulfonamide], for which the EC50 stood at 41 nM.

For `COC[C@@H]1COc2cc(F)c(F)cc2-c2nnc(NS(=O)(=O)[C@@H](C)[C@@H](OC(C)C)c3ncc(C)cn3)n21` (mixture of isomers) [Example 16.0, (1S,2S)-N-((5R)-9,10-difluoro-5-(methoxymethyl)-5,6-dihydro[1,2,4]triazolo[4,3-d][1,4]benzoxazepin-3-yl)-1-(5-methyl-2-pyrimidinyl)-1-(2-propanyloxy)-2-propanesulfonamide and (1S,2S)-N-((5S)-9,10-difluoro-5-(methoxymethyl)-5,6-dihydro[1,2,4]triazolo[4,3-d][1,4]benzoxazepin-3-yl)-1-(5-methyl-2-pyrimidinyl)-1-(2-propanyloxy)-2-propanesulfonamide], the EC50 came out at 1700 nM.

In the case of `COC[C@@H]1COc2ccc(F)cc2-c2nnc(NS(=O)(=O)[C@@H](C)[C@@H](OC(C)C)c3ncc(C)cn3)n21` (mixture of isomers) [Example 23.0, (1S,2S)-N-((5R)-10-fluoro-5-(methoxymethyl)-5,6-dihydro[1,2,4]triazolo[4,3-d][1,4]benzoxazepin-3-yl)-1-(5-methyl-2-pyrimidinyl)-1-(2-propanyloxy)-2-propanesulfonamide and (1S,2S)-N-((5S)-10-fluoro-5-(methoxymethyl)-5,6-dihydro[1,2,4]triazolo[4,3-d][1,4]benzoxazepin-3-yl)-1-(5-methyl-2-pyrimidinyl)-1-(2-propanyloxy)-2-propanesulfonamide], the concentration giving a half-maximal response (EC50) amounted to 37 nM.

As to `Cc1cnc([C@H](OC(C)C)[C@H](C)S(=O)(=O)Nc2nnc3n2[C@H](CO)COc2ncccc2-3)nc1` (mixture of isomers) [Example 30.0, (1S,2S)-N-((5R)-5-(hydroxymethyl)-5,6-dihydropyrido[3,2-f][1,2,4]triazolo[4,3-d][1,4]oxazepin-3-yl)-1-(5-methyl-2-pyrimidinyl)-1-(2-propanyloxy)-2-propanesulfonamide and (1S,2S)-N-((5S)-5-(hydroxymethyl)-5,6-dihydropyrido[3,2-f][1,2,4]triazolo[4,3-d][1,4]oxazepin-3-yl)-1-(5-methyl-2-pyrimidinyl)-1-(2-propanyloxy)-2-propanesulfonamide], the half-maximal effective concentration (EC50) was determined as 460 nM.

As to `CC(C)O[C@@H](c1ncc(Cl)cn1)[C@H](C)S(=O)(=O)Nc1nnc2n1[C@H](CO)COc1ncccc1-2` (mixture of isomers) [Example 31.0, (1S,2S)-1-(5-chloro-2-pyrimidinyl)-N-((5R)-5-(hydroxymethyl)-5,6-dihydropyrido[3,2-f][1,2,4]triazolo[4,3-d][1,4]oxazepin-3-yl)-1-(2-propanyloxy)-2-propanesulfonamide and (1S,2S)-1-(5-chloro-2-pyrimidinyl)-N-((5S)-5-(hydroxymethyl)-5,6-dihydropyrido[3,2-f][1,2,4]triazolo[4,3-d][1,4]oxazepin-3-yl)-1-(2-propanyloxy)-2-propanesulfonamide], the 50% effective concentration (EC50) was determined as 720 nM.

As for `COC[C@@H]1COc2ncccc2-c2nnc(NS(=O)(=O)[C@@H](C)[C@@H](OC(C)C)c3ncc(C)cn3)n21` (mixture of isomers) [Example 32.0, (1S,2S)-N-((5R)-5-(methoxymethyl)-5,6-dihydropyrido[3,2-f][1,2,4]triazolo[4,3-d][1,4]oxazepin-3-yl)-1-(5-methyl-2-pyrimidinyl)-1-(2-propanyloxy)-2-propanesulfonamide and (1S,2S)-N-((5S)-5-(methoxymethyl)-5,6-dihydropyrido[3,2-f][1,2,4]triazolo[4,3-d][1,4]oxazepin-3-yl)-1-(5-methyl-2-pyrimidinyl)-1-(2-propanyloxy)-2-propanesulfonamide], the EC50 amounted to 140 nM.

Regarding `COC[C@@H]1COc2c(OC)cccc2-c2nnc(NS(=O)(=O)[C@@H](C)[C@@H](OC(C)C)c3ncc(C)cn3)n21` (mixture of isomers) [Example 33.0, (1S,2S)-N-((5R)-8-methoxy-5-(methoxymethyl)-5,6-dihydro[1,2,4]triazolo[4,3-d][1,4]benzoxazepin-3-yl)-1-(5-methyl-2-pyrimidinyl)-1-(2-propanyloxy)-2-propanesulfonamide and (1S,2S)-N-((5S)-8-methoxy-5-(methoxymethyl)-5,6-dihydro[1,2,4]triazolo [4,3-d][1,4]benzoxazepin-3-yl)-1-(5-methyl-2-pyrimidinyl)-1-(2-propanyloxy)-2-propanesulfonamide], the concentration for a half-maximal effect (EC50) amounted to 15 nM.

Turning to `CO[C@H](c1ncc(C)cn1)[C@H](C)S(=O)(=O)Nc1nnc2n1[C@H](CO)COc1ncccc1-2` (mixture of isomers) [Example 36.0, (1R,2S)-N-((5R)-5-(hydroxymethyl)-5,6-dihydropyrido[3,2-f][1,2,4]triazolo[4,3-d][1,4]oxazepin-3-yl)-1-methoxy-1-(5-methyl-2-pyrimidinyl)-2-propanesulfonamide and (1R,2S)-N-((5S)-5-(hydroxymethyl)-5,6-dihydropyrido[3,2-f][1,2,4]triazolo[4,3-d][1,4]oxazepin-3-yl)-1-methoxy-1-(5-methyl-2-pyrimidinyl)-2-propanesulfonamide], the concentration giving a half-maximal response (EC50) was 1800 nM.

`COC[C@@H]1COc2ncccc2-c2nnc(NS(=O)(=O)[C@@H](C)[C@@H](OC(C)C)c3ncc(Cl)cn3)n21` (mixture of isomers) [Example 37.0, (1S,2S)-1-(5-chloro-2-pyrimidinyl)-N-((5R)-5-(methoxymethyl)-5,6-dihydropyrido[3,2-f][1,2,4]triazolo[4,3-d][1,4]oxazepin-3-yl)-1-(2-propanyloxy)-2-propanesulfonamide and (1S,2S)-1-(5-chloro-2-pyrimidinyl)-N-((5S)-5-(methoxymethyl)-5,6-dihydropyrido[3,2-f][1,2,4]triazolo[4,3-d][1,4]oxazepin-3-yl)-1-(2-propanyloxy)-2-propanesulfonamide]: the EC50 was determined as 30 nM.

Consider `COC[C@@H]1COc2ccc(F)cc2-c2nnc(NS(=O)(=O)CCc3ncc(C)cn3)n21` (mixture of isomers) [Example 42.0, N-((5R)-10-fluoro-5-(methoxymethyl)-5,6-dihydro[1,2,4]triazolo[4,3-d][1,4]benzoxazepin-3-yl)-2-(5-methyl-2-pyrimidinyl)ethanesulfonamide and N-((5S)-10-fluoro-5-(methoxymethyl)-5,6-dihydro[1,2,4]triazolo[4,3-d][1,4]benzoxazepin-3-yl)-2-(5-methyl-2-pyrimidinyl)ethanesulfonamide], for which the concentration giving a half-maximal response (EC50) was 4100 nM.

In the case of `CO[C@H](c1ncc(C)cn1)[C@H](C)S(=O)(=O)Nc1nnc2n1[C@H](COC(C)C)COc1ncccc1-2` (mixture of isomers) [Example 56.0, (1R,2S)-N-((R)-5-(isopropoxymethyl)-5,6-dihydropyrido[3,2-f][1,2,4]triazolo[4,3-d][1,4]oxazepin-3-yl)-1-methoxy-1-(5-methylpyrimidin-2-yl)propane-2-sulfonamide and (1R,2S)-N-((S)-5-(isopropoxymethyl)-5,6-dihydropyrido[3,2-f][1,2,4]triazolo[4,3-d][1,4]oxazepin-3-yl)-1-methoxy-1-(5-methylpyrimidin-2-yl)propane-2-sulfonamide], the EC50 amounted to 2200 nM.

For the compound `Cc1cnc([C@@H](OC(C)C)[C@H](C)S(=O)(=O)Nc2nnc3n2[C@H](CO)COc2ncccc2-3)nc1` (mixture of isomers) [Example 57.0, (1R,2S)-N-((5R)-5-(hydroxymethyl)-5,6-dihydropyrido[3,2-f][1,2,4]triazolo[4,3-d][1,4]oxazepin-3-yl)-1-(5-methyl-2-pyrimidinyl)-1-(2-propanyloxy)-2-propanesulfonamide and (1R,2S)-N-((5S)-5-(hydroxymethyl)-5,6-dihydropyrido[3,2-f][1,2,4]triazolo[4,3-d][1,4]oxazepin-3-yl)-1-(5-methyl-2-pyrimidinyl)-1-(2-propanyloxy)-2-propanesulfonamide], the concentration for a half-maximal effect (EC50) is more than 12500 nM.
